# Tests used:
# human recombinant CYP1A2 = biological target: T1, human recombinant CYP1A2 (Homo sapiens, UniProt P05177); test: CYP phenotyping panel (PTX 251D clearance); type: in vitro ADME; conditions: 1E-07 M PTX 251D; after 60 minutes
# T1 construct: Eurofins Discovery Services (Eurofins Panlabs Inc) ran the assay
# T1 sequence (P05177 1-516): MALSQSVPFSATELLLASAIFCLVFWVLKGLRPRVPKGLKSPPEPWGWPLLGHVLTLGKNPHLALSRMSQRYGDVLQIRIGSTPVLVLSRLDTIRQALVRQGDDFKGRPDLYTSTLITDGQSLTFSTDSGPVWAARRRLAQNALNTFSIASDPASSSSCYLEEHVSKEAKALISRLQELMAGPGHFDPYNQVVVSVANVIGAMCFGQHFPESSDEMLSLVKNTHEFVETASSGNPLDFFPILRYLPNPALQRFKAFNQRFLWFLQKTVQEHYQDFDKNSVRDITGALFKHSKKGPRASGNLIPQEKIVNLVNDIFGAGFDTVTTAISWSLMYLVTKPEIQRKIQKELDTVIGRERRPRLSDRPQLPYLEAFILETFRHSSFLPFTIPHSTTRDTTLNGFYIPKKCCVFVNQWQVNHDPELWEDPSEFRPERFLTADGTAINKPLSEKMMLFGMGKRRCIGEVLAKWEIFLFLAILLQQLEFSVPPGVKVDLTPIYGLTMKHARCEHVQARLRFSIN
# Method: (§1) Assays for human CYP activity (CYP phenotyping), CYP2D6 metabolite discovery (metID), ion channel inhibition (CiPA), and G-protein coupled receptor (GPCR) activity (gpcrMAX) were performed through Eurofins Discovery Services (Eurofins Panlabs Inc, St. Charles MO, USA). In the CYP phenotyping panel, human recombinant CYP1A2, CYP2B6, CYP2C8, CYP2C9, CYP2C19, CYP2D6, and CYP3A4 were included in the assay. A concentration of 1E-07 M of PTX 251D was tested, and the percent compound remaining was quantified at 0, 15, 30, 45, and 60 minutes using HPLC-MS/MS. As a positive control, a reference compound was used for each CYP tested (see S1 File for results). In the CYP2D6 metabolism assay, human recombinant CYP2D6 was incubated with an initial concentration of 10 μM and metabolites were quantified after 90 minutes using LC-MS/MS. Two replicates were used for the CYP phenotyping panel and one replicate was used for CYP2D6 metabolite assay. The CiPA assay was a cell-based QPatch on voltage-gated sodium channel NaV1.5 (peak and late/agonist), voltage-gated potassium channels Kv4.3/KChIP2, hERG, KCNQ1/minK, Kir2.1, and voltage-gated calcium channel Cav1.2. The concentrations of PTX 251D assayed were 3, 10, and 30 μM, and a reference compound for each channel was used (see S1 File for results and individual QPatch parameters). In the gpcrMAX assay a panel of 165 GPCRs was tested through the DiscoverX PathHunter beta-arrestin enzyme fragment complementation technology, and a concentration of 10 μM PTX 251D was tested for both agonist and antagonist activity along with a reference compound for each GPCR (see S1 File for results).
# human recombinant CYP3A4 = biological target: T2, human recombinant CYP3A4 (Homo sapiens, UniProt P08684); test: CYP phenotyping panel (PTX 251D clearance); type: in vitro ADME; conditions: 1E-07 M PTX 251D; after 60 minutes
# T2 construct: Eurofins Discovery Services (Eurofins Panlabs Inc) ran the assay
# T2 sequence (P08684 whole entry): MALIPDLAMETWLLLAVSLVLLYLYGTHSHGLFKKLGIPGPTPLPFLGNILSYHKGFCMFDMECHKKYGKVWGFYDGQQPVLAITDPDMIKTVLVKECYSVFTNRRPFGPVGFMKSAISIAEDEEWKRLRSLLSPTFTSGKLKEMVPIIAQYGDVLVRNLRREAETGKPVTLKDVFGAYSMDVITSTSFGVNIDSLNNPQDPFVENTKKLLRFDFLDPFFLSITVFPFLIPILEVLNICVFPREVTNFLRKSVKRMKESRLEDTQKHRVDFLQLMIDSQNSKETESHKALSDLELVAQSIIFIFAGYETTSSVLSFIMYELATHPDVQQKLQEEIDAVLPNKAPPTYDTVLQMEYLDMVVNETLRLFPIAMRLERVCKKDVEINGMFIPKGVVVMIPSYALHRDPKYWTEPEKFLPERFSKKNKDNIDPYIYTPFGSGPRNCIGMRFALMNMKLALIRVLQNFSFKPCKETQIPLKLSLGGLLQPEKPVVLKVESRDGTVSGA
# Method: as §1
# [1] = Alkaloid feeding experiment, alkaloid abundance in tissues by LC-MS/MS; type: in vivo, Dendrobates tinctorius; conditions: DHQ+PTX feeding group; fed orally daily for five days
# From the text: Lab-reared (non-toxic) Dendrobates tinctorius were housed in terraria with live plants, a water pool, and a shelter. Ten adult females were size-matched, randomly assigned to control or experimental groups (N = 5 per group), and then housed individually. To measure the specific effects of PTX 251D compared to a background toxicity, the control group was fed 0.01% DHQ (Sigma-Aldrich, St. Louis, USA) in a solution of 1% EtOH and the experimental group was fed a solution of 0.01% DHQ and 0.01% PTX 251D (PepTech, Burlington, MA, USA) in a solution of 1% EtOH in water. Each frog was fed 15 μL each day for five days by pipetting the solution directly into the mouth between 10am-12pm. On the afternoon of the fifth day, frogs were euthanized by cervical transection and the dorsal skin, liver, intestines, and oocytes were dissected into Trizol (Thermo Fisher Scientific, Waltham, USA).
# To isolate alkaloids, 0.3 mL of 100% EtOH was added to 1mL of organic layer from the Trizol RNA extraction, inverted 10 times, and stored at room temperature for 2–3 minutes to precipitate genomic DNA, which was pelleted by centrifugation at 2000g for 5 minutes at 4°C. Then, 300 μL of supernatant was transferred to a new microfuge tube. Proteins were precipitated by adding 900 μL of acetone, mixing by inversion for 10–15 seconds, incubating at room temperature for 10 min, and centrifuging at max speed for 10 min at 4°C. Then, 1 mL of the supernatant containing alkaloids was moved into a glass vial and stored at -20°C until dried down completely under a gentle nitrogen gas flow.
# Samples were resuspended in 200 μl of methanol:chloroform 1:1 and 1 μM Nicotine-d3 (used as an internal standard). A 10-point standard curve was prepared in the same solution with DHQ and PTX 251D. A QE+ mass spectrometer coupled to an Ultimate3000 LC (ThermoFisher) was used for analysis. […] The gradient was 0% B for 1 min, then increased to 100% B in 14 min, followed by 5 min at 100% B and 3.5 min at 0% B. Data were quantified using accurate mass, using the standard curve for DHQ and PTX 251D for absolute quantification. aPTX 267A was identified by accurate mass and MS/MS fragmentation similarity to PTX.
# R version 3.6.3 was used for all statistical analyses, and all plotting and statistics code is provided in a S1 File. There were instances in the LC-MS/MS data where the molecules of interest (DHQ, PTX 251D, or aPTX 267A) were not detected, and these were converted to zeros prior to statistical analyses and visualization. […] PTX 251D and DHQ were analyzed separately. The abundance of aPTX 267A was approximated using the area-under-the-curve divided by the internal nicotine standard, and as there is no standard for aPTX 267A, exact pmol values could not be calculated. […]
# mice = mice and insects; cited from earlier work
smiles,measurement,setting,value
"CCCCC(C)C=C1CN2CCCC2C(C)(O)C1 (stereo not shown) [PTX 251D, pumiliotoxin (PTX 251D)]",clearance of PTX 251D by CYP1A2,human recombinant CYP1A2,minimal clearance
same,clearance of PTX 251D by CYP3A4,human recombinant CYP3A4,minimal clearance
same,PTX 251D abundance by tissue and treatment,[1],highest levels in the liver and skin
same,toxic effects,mice,"pain, hyperactivity, convulsions and death"
